Each structure is given as a SMILES string. Activity calls are given as the source filed them. No stated cut-off is given here; in the data, actives have a measured IC50 and inactives only a lower limit.

The IC50 is the concentration at which inhibition is half-maximal.

Chain of Envelope glycoprotein gp160 (Q6QLK5 whole entry, the tested form may be a part): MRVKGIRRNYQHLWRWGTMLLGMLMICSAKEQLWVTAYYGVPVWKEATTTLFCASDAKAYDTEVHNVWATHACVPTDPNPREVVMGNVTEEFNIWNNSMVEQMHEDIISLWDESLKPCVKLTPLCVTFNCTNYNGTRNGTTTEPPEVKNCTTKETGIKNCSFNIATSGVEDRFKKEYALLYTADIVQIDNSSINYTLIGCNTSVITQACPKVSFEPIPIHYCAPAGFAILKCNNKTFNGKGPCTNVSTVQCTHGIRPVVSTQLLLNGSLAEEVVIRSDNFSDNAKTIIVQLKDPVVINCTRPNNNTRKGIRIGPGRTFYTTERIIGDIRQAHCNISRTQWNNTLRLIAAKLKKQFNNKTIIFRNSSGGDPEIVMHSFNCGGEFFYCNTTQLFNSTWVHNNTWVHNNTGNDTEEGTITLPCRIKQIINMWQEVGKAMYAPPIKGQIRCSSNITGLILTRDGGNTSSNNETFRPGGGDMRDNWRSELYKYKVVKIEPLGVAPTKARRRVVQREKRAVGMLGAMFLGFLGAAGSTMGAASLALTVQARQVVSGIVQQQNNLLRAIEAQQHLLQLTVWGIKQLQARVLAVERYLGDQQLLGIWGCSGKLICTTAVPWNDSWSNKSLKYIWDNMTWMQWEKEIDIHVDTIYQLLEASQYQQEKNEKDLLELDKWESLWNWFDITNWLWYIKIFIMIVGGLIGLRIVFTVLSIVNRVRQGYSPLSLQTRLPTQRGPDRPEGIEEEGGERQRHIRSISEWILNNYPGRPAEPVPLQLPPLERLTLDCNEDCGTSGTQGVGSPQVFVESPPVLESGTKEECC

The assay concerns the target Envelope glycoprotein gp160 (Human immunodeficiency virus 1, UniProt Q6QLK5). The assay can be described thus: cell-free HIV fusion peptide-binding blockers – biochemical, uHTS, fluorescence dequenching, […] (AID 1986).
`Cc1ccc(S(=O)(=O)NC2=NC(=O)/C(=C/c3cc([N+](=O)[O-])ccc3O)S2)cc1`: the IC50 is 13.5 µM (active).
On to `CCc1nnc(NS(=O)(=O)c2ccc(N/C=C(\C=O)c3nc4cc(Cl)ccc4o3)cc2)s1`, for which the IC50 was 19.7 µM (active).
The result for `O=C(Nc1ccc(Br)cc1C(=O)O)c1ccc2c(c1)C(=O)N(Cc1ccccc1)C2=O` reads 13.5 µM (active).
The result for `Cc1cc(/C=c2\sc3nc4ccccc4n3c2=O)c(C)n1-c1ccc(C(=O)O)cc1` reads 25.8 µM (active).
